# Reference: article PMC10254235, “Design, Synthesis, and Anti-Cervical Cancer and Reversal of Tumor Multidrug Resistance Activity of Novel Nitrogen-Containing Heterocyclic Chalcone Derivatives” (Molecules, 2023)
# What was measured:
# Bax = assay: Western blot, Bax in HeLa cells; assay type: cell-based, human; details: HeLa, 2, 4 and 6 μM, 24 h, versus control, p < 0.05
# Description: (§1) Next, the protein concentrations were determined using a BCA Protein Assay Kit (Solarbio, China). An equal amount of the proteins (12 μg) were separated using 8–12% sodium dodecyl sulfate–polyacrylamide gel electrophoresis (SDS-PAGE) and transferred to nitrocellulose membranes (Amersham Biosciences, Little Chalfont, Buckinghamshire, UK). Then, the membranes were blocked with 5% nonfat dried milk in TBS containing 1% Tween-20 for 2 h at room temperature and were incubated overnight with specific primary antibodies (CST, Boston, MA, USA) at 4 °C. After three washes in TBST, the membranes were incubated with the appropriate HRP-conjugated secondary antibodies at room temperature for 2 h. The blots were developed using enhanced chemiluminescence (Biosharp, Shanghai, China) and were detected using a PE 0723 imager (ProteinSimple, Silicon Valley, CA, USA). Each experiment was performed at least in triplicate and analyzed using Image J software (V1.8.0.112). […]
# After incubation, cells were harvested and incubated using […] of Annexin-V/FITC (BD, America) in binding buffer (10 mM HEPES, 140 mM NaCl, and 2.5 mM CaCl2 at pH 7.4) at room temperature for 15 min. […] Almost 10,000 events were collected for each sample and analyzed using flow cytometry (BD, LSRFortessa, New York, NY, USA). […]
# HeLa cells = assay: Transwell invasion assay (Matrigel); assay type: cell-based, human; details: 24 h, control 172
# Description: The transwell ([…], Corning Incorporated, New York, NY, USA) was precoated using 50 μL Matrigel for 5 h at 37 °C to achieve solidification. […] After 24 h of incubation at 37 °C, the invasion cells were fixed using methanol and stained using 0.1% crystal violet for 30 min, respectively. Then, the chambers were washed using PBS and left to dry. Images were photographed using an inverted fluorescence microscope (Leica, Microsystems CMS GmbH, GER) and counted using Image J software (V1.8.0.112) for three independent fields randomly.
# p-AKT (Ser473) = assay: Western blot, p-AKT in HeLa cells; assay type: cell-based, human; details: HeLa, 2, 4 and 6 μM, 24 h
# Description: as §1
# HeLa/DDP cells = assay: MTT assay, cisplatin-resistant HeLa/DDP cells; assay type: cell-based, human
# Description: The cytotoxicity of the target compounds were measured in vitro using the MTT assay. Cells grown in the logarithmic phase were counted and seeded in 96-well cell culture plates (5 × 10^3 cells per well) for 24 h to allow attachment of cells to the wall of the plate. […] Next, 20 μL of 5 mg.mL^−1 MTT solution was added to each well and cultured for 4 h. The old solution was discarded, replaced with 150 μL DMSO solution per well, and shaken for 10 min. The OD value was measured under 490 nm, and the inhibition rate was calculated. The nonlinear regression fitting of the cell growth rate was carried out using SPSS 23.0 software, and the IC50 of the compound was calculated. […] A complete medium containing only cells was used as the blank control, whereas a complete medium without cells was the negative control group.
# p-VEGFR-2 (Y1175) = assay: Western blot, p-VEGFR-2 in HeLa cells; assay type: cell-based, human; details: HeLa, 2, 4 and 6 μM, 24 h
# Description: as §1
# VEGFR-2 = biological target: T1, VEGFR-2 (Homo sapiens, UniProt P35968); assay: VEGFR-2 inhibition test (human p-VEGFR-2 ELISA in HeLa cells); assay type: cell-based; details: ± SD, read-out: 48h IC50 VEGFR-2 inhibitory effect
# T1 construct: endogenous in cells; host or cells: HeLa cells
# T1 sequence (P35968 20-1356): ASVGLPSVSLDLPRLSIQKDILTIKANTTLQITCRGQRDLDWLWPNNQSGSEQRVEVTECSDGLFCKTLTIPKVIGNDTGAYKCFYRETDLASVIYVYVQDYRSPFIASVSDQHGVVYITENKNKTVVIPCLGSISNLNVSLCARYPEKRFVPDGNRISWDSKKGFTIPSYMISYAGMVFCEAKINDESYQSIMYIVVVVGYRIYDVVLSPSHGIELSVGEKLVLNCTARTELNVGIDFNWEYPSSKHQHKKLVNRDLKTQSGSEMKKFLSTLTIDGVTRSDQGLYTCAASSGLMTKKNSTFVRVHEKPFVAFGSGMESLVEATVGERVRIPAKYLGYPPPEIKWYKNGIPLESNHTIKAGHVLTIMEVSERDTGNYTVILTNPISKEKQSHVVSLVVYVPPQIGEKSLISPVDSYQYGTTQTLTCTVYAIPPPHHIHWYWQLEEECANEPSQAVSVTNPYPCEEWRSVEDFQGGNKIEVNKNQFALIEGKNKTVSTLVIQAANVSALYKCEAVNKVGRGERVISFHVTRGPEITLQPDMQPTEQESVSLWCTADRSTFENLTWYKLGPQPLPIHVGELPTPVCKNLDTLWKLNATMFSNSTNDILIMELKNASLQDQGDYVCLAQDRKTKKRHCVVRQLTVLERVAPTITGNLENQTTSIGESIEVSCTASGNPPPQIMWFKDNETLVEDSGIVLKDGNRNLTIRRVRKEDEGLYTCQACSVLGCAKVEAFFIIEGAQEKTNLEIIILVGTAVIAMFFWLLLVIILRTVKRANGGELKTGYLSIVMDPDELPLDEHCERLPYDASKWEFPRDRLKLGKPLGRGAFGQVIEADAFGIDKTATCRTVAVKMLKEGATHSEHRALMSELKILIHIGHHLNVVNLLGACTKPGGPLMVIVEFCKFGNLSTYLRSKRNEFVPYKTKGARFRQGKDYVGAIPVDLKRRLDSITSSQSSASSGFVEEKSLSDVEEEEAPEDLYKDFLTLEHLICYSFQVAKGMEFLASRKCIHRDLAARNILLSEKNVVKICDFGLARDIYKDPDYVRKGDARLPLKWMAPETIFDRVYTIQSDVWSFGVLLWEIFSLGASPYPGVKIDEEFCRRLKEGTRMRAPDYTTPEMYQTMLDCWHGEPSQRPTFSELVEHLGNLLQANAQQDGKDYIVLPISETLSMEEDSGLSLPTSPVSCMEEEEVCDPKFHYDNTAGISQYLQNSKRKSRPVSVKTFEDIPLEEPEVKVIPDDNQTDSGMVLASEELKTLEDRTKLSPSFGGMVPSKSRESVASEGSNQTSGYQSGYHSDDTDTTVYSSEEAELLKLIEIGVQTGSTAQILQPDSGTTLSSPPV
# Description: Specimens, standards, and HRP-labeled detection antibodies were added sequentially to the pre-covered microtiter wells containing phosphorylated vascular endothelial growth factor receptor 2 (p-VEGFR2) antibodies, warmed, and washed thoroughly. The substrate TMB was added for color development. This substrate is converted to blue using peroxidase catalysis to a final yellow color due to the action of acid. […] Curve fitting was performed using SPSS 23.0 software to calculate IC50.
# p-VEGFR-2 = assay: Western blot, VEGFR-2 phosphorylation in HeLa/DDP cells; assay type: cell-based, human; details: 4 and 6 μM, versus blank group, p < 0.05
# Description: as §1
# To reduce the adverse reactions caused by the fixation of drug resistance reversal agents, the concentration that reduces the proliferation rate of tumor cells by less than 10% was selected. Therefore, the inhibitory activity of compound 6f on HeLa/DDP cells was determined in the concentration ranges of 0.25, 0.5, and 1 μM combined with cisplatin. […]
smiles,measurement,setting,value
"COc1cc(O)c(C(=O)/C=C/c2ccc(CN3CCC(C)CC3)cc2)cc1CN1CCC(O)CC1 [6f, (E)-1-(2-hydroxy-5-((4-hydroxypiperidin-1-yl)methyl)-4-methoxyphenyl)-3-(4-((4-methylpiperidin-1-yl)methyl)phenyl)prop-2-en-1-one]",expression of Bax (Western blot),Bax,significantly upregulated the expression of Bax
same,number of invading cells,HeLa cells; 2 μM,91
same,number of invading cells,HeLa cells; 4 μM,50
same,number of invading cells,HeLa cells; 6 μM,35
same,p-AKT (Ser473) in HeLa cells (Western blot),p-AKT (Ser473),effective downregulation
same,inhibitory rate on HeLa/DDP cell line,"HeLa/DDP cells; 6f alone at 0.25, 0.5 and 1 μM",less than 10%
same,RI (resistance index),"HeLa/DDP cells; HeLa/DDP versus HeLa, single agent",1.19
same,IC50,"HeLa/DDP cells; Homo sapiens, cisplatin-resistant HeLa/DDP cells, single agent, 48 h, read-out: 48h IC50 HeLa/DDP",7.74 ± 0.36 µM
same,p-VEGFR-2 (Y1175) in HeLa cells (Western blot),p-VEGFR-2 (Y1175),effective downregulation
same,IC50,VEGFR-2,750 ± 50 nM
same,phosphorylation of VEGFR-2 in HeLa/DDP cells (Western blot),p-VEGFR-2,noteworthy ability to impede the phosphorylation of VEGFR-2
